Assay results reported in patent US10004701B2, “Methods and compositions for treating infection” (UNIVERSITY OF ROCHESTER, priority 2012, dated 2018).
Like-named read-outs stand apart in the source and are kept apart here.

Legend:
Experiment in all cases: AK assay 384-well format, Prestwick library screening
E. coli = type: cell-based, Escherichia coli; conditions: Escherichia coli, 3 h, 50 μM final drug concentration
[1] = tested on: S. aureus strain USA300-0114; type: cell-based, Staphylococcus aureus; conditions: Staphylococcus aureus, USA300, 3 h, 50 μM final drug concentration
E. faecium = type: cell-based, Enterococcus faecium; conditions: Enterococcus faecium, 3 h, 50 μM final drug concentration
E. cloacae = type: cell-based, Enterobacter cloacae; conditions: Enterobacter cloacae, 3 h, 50 μM final drug concentration
P. aeruginosa = type: cell-based, Pseudomonas aeruginosa; conditions: Pseudomonas aeruginosa, 3 h, 50 μM final drug concentration
K. pneumoniae = type: cell-based, Klebsiella pneumoniae; conditions: Klebsiella pneumoniae, 3 h, 50 μM final drug concentration, cutoff for positive-scoring molecules 3-fold increase
[2] = tested on: A. baumannii strain 98-37-09; type: cell-based, Acinetobacter baumannii; conditions: Acinetobacter baumannii, 983709, 3 h, 50 μM final drug concentration, cutoff for positive-scoring molecules 3-fold increase
[3] = planktonic E. coli, cutoff for positive-scoring molecules 3-fold increase, read-out: AK-based Prestwick Library Screening Results, E. coli (increase in extracellular AK activity)
[4] = planktonic S. aureus, cutoff for positive-scoring molecules 3-fold increase, read-out: AK-based Prestwick Library Screening Results, S. aureus (increase in extracellular AK activity)
[5] = planktonic E. faecium, cutoff for positive-scoring molecules 3-fold increase, read-out: AK-based Prestwick Library Screening Results, E. faecium (increase in extracellular AK activity)
[6] = planktonic E. cloacae, cutoff for positive-scoring molecules 3-fold increase, read-out: AK-based Prestwick Library Screening Results, E. cloacae (increase in extracellular AK activity)
[7] = planktonic P. aeruginosa, cutoff for positive-scoring molecules 3-fold increase, read-out: AK-based Prestwick Library Screening Results, P. aeruginosa (increase in extracellular AK activity)
[8] = planktonic K. pneumoniae, read-out: AK-based Prestwick Library Screening Results, K. pneumoniae (increase in extracellular AK activity)
[9] = planktonic A. baumannii, read-out: AK-based Prestwick Library Screening Results, A. baumannii (increase in extracellular AK activity)
[10] = cutoff for positive-scoring molecules 3-fold increase, read-out: AK-based Prestwick Library Screening Results, E. coli (fold increase in extracellular AK activity)
[11] = cutoff for positive-scoring molecules 3-fold increase, read-out: AK-based Prestwick Library Screening Results, S. aureus (fold increase in extracellular AK activity)
[12] = cutoff for positive-scoring molecules 3-fold increase, read-out: AK-based Prestwick Library Screening Results, E. faecium (fold increase in extracellular AK activity)
[13] = cutoff for positive-scoring molecules 3-fold increase, read-out: AK-based Prestwick Library Screening Results, E. cloacae (fold increase in extracellular AK activity)
[14] = cutoff for positive-scoring molecules 3-fold increase, read-out: AK-based Prestwick Library Screening Results, P. aeruginosa (fold increase in extracellular AK activity)
[15] = read-out: AK-based Prestwick Library Screening Results, K. pneumoniae (fold increase in extracellular AK activity)
[16] = read-out: AK-based Prestwick Library Screening Results, A. baumannii (fold increase in extracellular AK activity)

Structure (SMILES): C[C@@H](O)[C@H]1C(=O)N2C(C(=O)O)=C(SCCN=CN)C[C@H]12 [Imipenem]
- fold induction at 50 µM (E. coli; [3]): 12.1
- fold induction at 50 µM [1, 4]: 2.5
- fold induction at 50 µM (E. faecium; [5]): 0.9
- fold induction at 50 µM (E. cloacae; [6]): 2.4
- fold induction at 50 µM (P. aeruginosa; [7]): 1
- fold induction at 50 µM (K. pneumoniae; [8]): 1.7
- fold induction at 50 µM [2, 9]: 1.2

Structure (SMILES): CC1Cc2ccccc2N1NC(=O)c1ccc(Cl)c(S(N)(=O)=O)c1 (centres unmarked) [Indapamide]
- fold induction at 50 µM (E. coli; planktonic E. coli, 384-well, cutoff for positive-scoring molecules 3-fold increase, read-out: AK-based Prestwick Library Screening Results: E. coli (increase in extracellular AK activity)): 1.1
- fold induction at 50 µM ([1]; planktonic S. aureus, 384-well, cutoff for positive-scoring molecules 3-fold increase, read-out: AK-based Prestwick Library Screening Results: S. aureus (increase in extracellular AK activity)): 1
- fold induction at 50 µM (E. faecium; planktonic E. faecium, 384-well, cutoff for positive-scoring molecules 3-fold increase, read-out: AK-based Prestwick Library Screening Results: E. faecium (increase in extracellular AK activity)): 1.1
- fold induction at 50 µM (E. cloacae; planktonic E. cloacae, 384-well, cutoff for positive-scoring molecules 3-fold increase, read-out: AK-based Prestwick Library Screening Results: E. cloacae (increase in extracellular AK activity)): 1.7
- fold induction at 50 µM (P. aeruginosa; planktonic P. aeruginosa, 384-well, cutoff for positive-scoring molecules 3-fold increase, read-out: AK-based Prestwick Library Screening Results: P. aeruginosa (increase in extracellular AK activity)): 1.1
- fold induction at 50 µM (K. pneumoniae; planktonic K. pneumoniae, 384-well, read-out: AK-based Prestwick Library Screening Results: K. pneumoniae (increase in extracellular AK activity)): 1.1
- fold induction at 50 µM ([2]; planktonic A. baumannii, 384-well, read-out: AK-based Prestwick Library Screening Results: A. baumannii (increase in extracellular AK activity)): 1

Structure (SMILES): COc1ccc2c(c1)c(CC(=O)O)c(C)n2C(=O)c1ccc(Cl)cc1 [Indomethacin]
- fold induction at 50 µM (E. coli; 384-well format, cutoff for positive-scoring molecules 3-fold increase, read-out: AK-based Prestwick Library Screening Results, E. coli (increase in extracellular AK activity)): 0.9
- fold induction at 50 µM ([1]; 384-well format, cutoff for positive-scoring molecules 3-fold increase, read-out: AK-based Prestwick Library Screening Results, S. aureus (increase in extracellular AK activity)): 0.6
- fold induction at 50 µM (E. faecium; 384-well format, cutoff for positive-scoring molecules 3-fold increase, read-out: AK-based Prestwick Library Screening Results, E. faecium (increase in extracellular AK activity)): 0.9
- fold induction at 50 µM (E. cloacae; 384-well format, cutoff for positive-scoring molecules 3-fold increase, read-out: AK-based Prestwick Library Screening Results, E. cloacae (increase in extracellular AK activity)): 1.2
- fold induction at 50 µM (P. aeruginosa; 384-well format, cutoff for positive-scoring molecules 3-fold increase, read-out: AK-based Prestwick Library Screening Results, P. aeruginosa (increase in extracellular AK activity)): 0.9
- fold induction at 50 µM (K. pneumoniae; 384-well format, read-out: AK-based Prestwick Library Screening Results, K. pneumoniae (increase in extracellular AK activity)): 0.8
- fold induction at 50 µM ([2]; 384-well format, read-out: AK-based Prestwick Library Screening Results, A. baumannii (increase in extracellular AK activity)): 1

Structure (SMILES): CC(C(=O)O)c1ccc(N2Cc3ccccc3C2=O)cc1 (centres unmarked) [Indoprofen]
- fold induction at 50 µM (E. coli; planktonic, cutoff for positive-scoring molecules 3-fold increase, read-out: AK-based Prestwick Library Screening Results, E. coli (fold increase in extracellular AK activity)): 0.2
- fold induction at 50 µM ([1]; planktonic, cutoff for positive-scoring molecules 3-fold increase, read-out: AK-based Prestwick Library Screening Results, S. aureus (fold increase in extracellular AK activity)): 0.2
- fold induction at 50 µM (E. faecium; planktonic, cutoff for positive-scoring molecules 3-fold increase, read-out: AK-based Prestwick Library Screening Results, E. faecium (fold increase in extracellular AK activity)): 0.1
- fold induction at 50 µM (E. cloacae; planktonic, cutoff for positive-scoring molecules 3-fold increase, read-out: AK-based Prestwick Library Screening Results, E. cloacae (fold increase in extracellular AK activity)): 1.5
- fold induction at 50 µM (P. aeruginosa; planktonic, cutoff for positive-scoring molecules 3-fold increase, read-out: AK-based Prestwick Library Screening Results, P. aeruginosa (fold increase in extracellular AK activity)): 0.2
- fold induction at 50 µM (K. pneumoniae; planktonic, read-out: AK-based Prestwick Library Screening Results, K. pneumoniae (fold increase in extracellular AK activity)): 0.1
- fold induction at 50 µM ([2]; planktonic, read-out: AK-based Prestwick Library Screening Results, A. baumannii (fold increase in extracellular AK activity)): 0.2

Structure (SMILES): O=C(CCCCC(=O)Nc1c(I)cc(I)c(C(=O)O)c1I)Nc1c(I)cc(I)c(C(=O)O)c1I [Iodipamide]
- fold induction at 50 µM (E. coli; [10]): 1.2
- fold induction at 50 µM [1, 11]: 1
- fold induction at 50 µM (E. faecium; [12]): 1
- fold induction at 50 µM (E. cloacae; [13]): 1.6
- fold induction at 50 µM (P. aeruginosa; [14]): 1.1
- fold induction at 50 µM (K. pneumoniae; [15]): 1
- fold induction at 50 µM [2, 16]: 1.2

Structure (SMILES): CC(=O)N(CC(O)CN(C(C)=O)c1c(I)c(C(=O)NCC(O)CO)c(I)c(C(=O)NCC(O)CO)c1I)c1c(I)c(C(=O)NCC(O)CO)c(I)c(C(=O)NCC(O)CO)c1I (centres unmarked) [Iodixanol]
- fold induction at 50 µM (E. coli; […], read-out: AK-based Prestwick Library Screening Results, E. coli (fold increase in extracellular AK activity)): 1.3
- fold induction at 50 µM ([1]; […], read-out: AK-based Prestwick Library Screening Results, S. aureus (fold increase in extracellular AK activity)): 1.3
- fold induction at 50 µM (E. faecium; […], read-out: AK-based Prestwick Library Screening Results, E. faecium (fold increase in extracellular AK activity)): 1.1
- fold induction at 50 µM (E. cloacae; […], read-out: AK-based Prestwick Library Screening Results, E. cloacae (fold increase in extracellular AK activity)): 1.5
- fold induction at 50 µM (P. aeruginosa; […], read-out: AK-based Prestwick Library Screening Results, P. aeruginosa (fold increase in extracellular AK activity)): 1.2
- fold induction at 50 µM (K. pneumoniae; [15]): 1
- fold induction at 50 µM [2, 16]: 1

Structure (SMILES): CC(=O)N(CC(O)CO)c1c(I)c(C(=O)NCC(O)CO)c(I)c(C(=O)NCC(O)CO)c1I (centres unmarked) [Iohexol]
- fold induction at 50 µM (E. coli; [3]): 1
- fold induction at 50 µM [1, 4]: 0.7
- fold induction at 50 µM (E. faecium; [5]): 0.9
- fold induction at 50 µM (E. cloacae; [6]): 1.1
- fold induction at 50 µM (P. aeruginosa; [7]): 0.8
- fold induction at 50 µM (K. pneumoniae; [8]): 0.7
- fold induction at 50 µM [2, 9]: 0.9

Structure (SMILES): C[C@H](O)C(=O)Nc1c(I)c(C(=O)NC(CO)CO)c(I)c(C(=O)NC(CO)CO)c1I [Iopamidol]
- fold induction at 50 µM (E. coli; [10]): 1.2
- fold induction at 50 µM [1, 11]: 1.3
- fold induction at 50 µM (E. faecium; [12]): 1
- fold induction at 50 µM (E. cloacae; [13]): 1.4
- fold induction at 50 µM (P. aeruginosa; [14]): 1.2
- fold induction at 50 µM (K. pneumoniae; [15]): 1.2
- fold induction at 50 µM [2, 16]: 1.2

Structure (SMILES): CCC(Cc1c(I)cc(I)c(N)c1I)C(=O)O (centres unmarked) [Iopanoic acid]
- fold induction at 50 µM (E. coli; [10]): 0.6
- fold induction at 50 µM [1, 11]: 0.4
- fold induction at 50 µM (E. faecium; [12]): 0.9
- fold induction at 50 µM (E. cloacae; [13]): 9.6
- fold induction at 50 µM (P. aeruginosa; [14]): 0.6
- fold induction at 50 µM (K. pneumoniae; [15]): 0.6
- fold induction at 50 µM [2, 16]: 0.6

Structure (SMILES): COCC(=O)Nc1c(I)c(C(=O)NCC(O)CO)c(I)c(C(=O)N(C)CC(O)CO)c1I (centres unmarked) [Iopromide]
- fold induction at 50 µM (E. coli; [10]): 1.2
- fold induction at 50 µM [1, 11]: 1.3
- fold induction at 50 µM (E. faecium; [12]): 1
- fold induction at 50 µM (E. cloacae; [13]): 1.4
- fold induction at 50 µM (P. aeruginosa; [14]): 1.2
- fold induction at 50 µM (K. pneumoniae; [15]): 1.1
- fold induction at 50 µM [2, 16]: 1.1

Structure (SMILES): O=C(NCC(O)CO)c1c(I)c(C(=O)NCC(O)CO)c(I)c(N(CCO)C(=O)CO)c1I (centres unmarked) [Ioversol]
- fold induction at 50 µM (E. coli; [10]): 1.2
- fold induction at 50 µM [1, 11]: 1.2
- fold induction at 50 µM (E. faecium; [12]): 1
- fold induction at 50 µM (E. cloacae; [13]): 1.4
- fold induction at 50 µM (P. aeruginosa; [14]): 1.2
- fold induction at 50 µM (K. pneumoniae; [15]): 1.2
- fold induction at 50 µM [2, 16]: 1.3
